This test deals with P388 leukemia ip, CD2F1 mice, survival T/C. Briefly: NCI In Vivo Anticancer Drug Screen. Data for tumor model P388 Leukemia (intraperitoneal) in CD2F1 (CDF1) mice. Conditions: endpoint: median survival time, higher = longer survival. In short, it runs like this:
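Mice carrying the transplanted tumor received test compound or vehicle. Survival was recorded in each group, and the value is the treated-group measurement divided by that of the vehicle-treated control group.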

The mark [1] stands for this setting: dose: 50.0 mg/kg/injection, schedule: Q01DX009 (ip), vehicle: suspension in saline.
The mark [2] stands for this setting: dose: 100.0 mg/kg/injection, schedule: Q01DX009 (ip), vehicle: suspension in saline.
Setting [3] is: dose: 60.0 mg/kg/injection, schedule: Q01DX005 (ip), vehicle: saline.
Setting [4] is: dose: 120.0 mg/kg/injection, schedule: Q01DX005 (ip), vehicle: saline.
[5] abbreviates: dose: 240.0 mg/kg/injection, schedule: Q01DX005 (ip), vehicle: saline.
Where [6] appears, read: dose: 25.0 mg/kg/injection, schedule: Q01DX009 (ip), vehicle: Klucel (hydroxypropylcellulose) (HPC).
Where [7] appears, read: dose: 50.0 mg/kg/injection, schedule: Q01DX009 (ip), vehicle: Klucel (hydroxypropylcellulose) (HPC).
The mark [8] stands for this setting: dose: 100.0 mg/kg/injection, schedule: Q01DX009 (ip), vehicle: Klucel (hydroxypropylcellulose) (HPC).
Where [9] appears, read: dose: 50.0 mg/kg/injection, schedule: Q01DX005 (ip), vehicle: saline with Tween-80.
Where [10] appears, read: dose: 100.0 mg/kg/injection, schedule: Q01DX005 (ip), vehicle: saline with Tween-80.
Where [11] appears, read: dose: 50.0 mg/kg/injection, schedule: Q04DX003 (ip), vehicle: saline with Tween-80.
Where [12] appears, read: dose: 100.0 mg/kg/injection, schedule: Q04DX003 (ip), vehicle: saline with Tween-80.
Setting [13] is: dose: 200.0 mg/kg/injection, schedule: Q04DX003 (ip), vehicle: saline with Tween-80.
Setting [14] is: dose: 50.0 mg/kg/injection, schedule: Q01DX005 (ip), vehicle: Klucel (hydroxypropylcellulose) (HPC).
Where [15] appears, read: dose: 100.0 mg/kg/injection, schedule: Q01DX005 (ip), vehicle: Klucel (hydroxypropylcellulose) (HPC).
The mark [16] stands for this setting: dose: 200.0 mg/kg/injection, schedule: Q01DX005 (ip), vehicle: Klucel (hydroxypropylcellulose) (HPC).
Where [17] appears, read: dose: 60.0 mg/kg/injection, schedule: Q01DX005 (ip), vehicle: saline with Tween-80.
Setting [18] is: dose: 120.0 mg/kg/injection, schedule: Q01DX005 (ip), vehicle: saline with Tween-80.
[19] abbreviates: dose: 240.0 mg/kg/injection, schedule: Q01DX005 (ip), vehicle: saline with Tween-80.
Setting [20] is: dose: 25.0 mg/kg/injection, schedule: Q01DX005 (ip), vehicle: Klucel (hydroxypropylcellulose) (HPC).
The mark [21] stands for this setting: dose: 50.0 mg/kg/injection, schedule: Q01DX009 (ip), vehicle: saline with Tween-80.

Molecules are shown by their SMILES. “And” between values parts separate entries of the source, which are not always exact repeats. Equal values may be shown once. Toxic doses and inconclusive results are not listed.

For `N#CC(c1ccccc1)C1NC(C(=O)O)CS1` (centres undefined), the T/C is, setting by setting: under setting [1], 106 % of control; under setting [2], 93 % of control; (dose: 200.0 mg/kg/injection, schedule: Q01DX009 (ip), vehicle: suspension in saline) 93 % of control.

Turning to `C=c1[nH]c(=O)c(=C)[nH]c1=O`, the T/C (dose: 12.5 mg/kg/injection, schedule: Q01DX009 (ip), vehicle: other) is 94 % of control; the T/C (dose: 25.0 mg/kg/injection, schedule: Q01DX009 (ip), vehicle: other) was 90 % of control; the T/C (dose: 50.0 mg/kg/injection, schedule: Q01DX009 (ip), vehicle: other) is 99 % of control; the T/C (dose: 100.0 mg/kg/injection, schedule: Q01DX009 (ip), vehicle: other) is 106 % of control.

`CCOC(=O)C12CCCC1=NN=C2C1=NN=C2CCCC21C(=O)OCC` (centres undefined): the T/C by setting is: under setting [3], 103 % of control; under setting [4], 98 % of control; under setting [5], 101 % of control.

For the molecule `CCOc1ccc(/C=N/NC(=O)c2ccccc2NC(=O)c2ccccc2Cl)cc1OC`, the T/C (dose: 30.0 mg/kg/injection, schedule: Q01DX005 (ip), vehicle: Klucel (hydroxypropylcellulose) (HPC)) was 101 % of control; the T/C (dose: 60.0 mg/kg/injection, schedule: Q01DX005 (ip), vehicle: Klucel (hydroxypropylcellulose) (HPC)) was 101 % of control and 90 % of control; the T/C (dose: 120.0 mg/kg/injection, schedule: Q01DX005 (ip), vehicle: Klucel (hydroxypropylcellulose) (HPC)) was 101 % of control; the T/C (dose: 240.0 mg/kg/injection, schedule: Q01DX005 (ip), vehicle: Klucel (hydroxypropylcellulose) (HPC)) was 91 % of control.

As for `CC/C(=C/C(F)(F)C(F)(F)C(F)(F)F)[N+](=O)[O-]`, the T/C is 96 % of control under setting [6], 104 % of control under setting [7] and 102 % of control under setting [8].

Turning to `Cc1ccccc1-n1c(=S)n(-c2ccc(Cl)cc2)c2nc3ccccc3nc1/c2=N/Nc1cc(Cl)ccc1Cl`, the T/C reads like this: under setting [9], 95 % of control; under setting [10], 92 % of control.

`N#CCCN(CCc1ccccn1)C(=S)Nc1cccc(C(F)(F)F)c1`: the T/C is 99 % of control under setting [11]; 101 % of control under setting [12]; 100 % of control under setting [13]; 101 % of control (dose: 400.0 mg/kg/injection, schedule: Q04DX003 (ip), vehicle: saline with Tween-80).

Turning to `Cc1cc(=O)[nH]c2cc(O)c(C(=O)O)cc12`, the T/C under setting [14] was 93 % of control, the T/C under setting [15] was 93 % of control and the T/C under setting [16] is 88 % of control.

Take `Cc1nc2ccccc2n(CC2CCCN3CCCC[C@H]23)c1=O` (some centres undefined): the T/C was 97 % of control under setting [9] and 101 % of control under setting [10].

As to `O=c1[nH]c(=O)n(C(c2ccccc2)c2ccccc2)cc1F`, the T/C is 100 % of control (dose: 12.5 mg/kg/injection, schedule: Q01DX009 (ip), vehicle: suspension in saline); 89 % of control (dose: 25.0 mg/kg/injection, schedule: Q01DX009 (ip), vehicle: suspension in saline); 99 % of control under setting [1]; 101 % of control (dose: 75.0 mg/kg/injection, schedule: Q01DX009 (ip), vehicle: suspension in saline); 94 % of control under setting [2]; 90 % of control (dose: 150.0 mg/kg/injection, schedule: Q01DX009 (ip), vehicle: suspension in saline).

Consider `O=c1c2ccccc2c(=O)n2n1C1C=CC2C1`, for which the T/C was 107 % of control under setting [14], 105 % of control under setting [15] and 100 % of control under setting [16].

With `Cc1cc(C)[n+]([O-])c(C)c1`, the T/C runs as follows: under setting [17], 101 % of control; under setting [3], 105 % of control; under setting [18], 99 % of control; under setting [4], 102 % of control; under setting [19], 97 % of control; under setting [5], 105 % of control.

In the case of `COC(=O)c1nnc2n1-c1ccc(Cl)cc1C(c1ccccc1)=[N+]([O-])C2`, the T/C (dose: 50.0 mg/kg/injection, schedule: Q04DX002 (ip), vehicle: saline with Tween-80) was 96 % of control; the T/C (dose: 100.0 mg/kg/injection, schedule: Q04DX002 (ip), vehicle: saline with Tween-80) was 104 % of control; the T/C (dose: 200.0 mg/kg/injection, schedule: Q04DX002 (ip), vehicle: saline with Tween-80) was 99 % of control.

As to `O=C(Nc1ccccc1)Oc1ccc[nH]c1=O`, the T/C is 117 % of control and 122 % of control under setting [6]; 113 % of control and 120 % of control (dose: 25.0 mg/kg/injection, schedule: Q01DX009 (ip), vehicle: saline); 117 % of control and 123 % of control under setting [7]; 118 % of control (dose: 50.0 mg/kg/injection, schedule: Q01DX009 (ip), vehicle: saline); 87 % of control under setting [8].

For `CNC(=O)OCc1c(COC(=O)NC)c(-c2ccc(Br)cc2)n(C)c1C`, the T/C (dose: 20.0 mg/kg/injection, schedule: Q01DX009 (ip), vehicle: distilled water + Tween-80) is 155 % of control.

Regarding `Cc1cc(N/N=C/c2ccccn2)c2cc3c(cc2n1)OCO3`, the T/C by setting is: (dose: 12.5 mg/kg/injection, schedule: Q01DX005 (ip), vehicle: Klucel (hydroxypropylcellulose) (HPC)) 103 % of control; under setting [20], 104 % of control; under setting [14], 101 % of control and 104 % of control.

Turning to `CC(=O)C(C)(C)Cc1cc(C(C)(C)CC=O)on1`, the T/C reads like this: under setting [17], 107 % of control; under setting [18], 100 % of control; under setting [19], 108 % of control.

With `CCOc1ccc(NC2OC(CO)C(O)C(O)C2NC(C)=O)cc1` (centres undefined), the T/C by setting is: under setting [9], 105 % of control; under setting [10], 101 % of control; (dose: 200.0 mg/kg/injection, schedule: Q01DX005 (ip), vehicle: saline with Tween-80) 96 % of control.

Consider `CCN(CC)CCCC(C)NC(=O)Nc1cc(OC)cc2cccnc12` (centres undefined), for which the T/C (dose: 12.5 mg/kg/injection, schedule: Q01DX005 (ip), vehicle: saline) is 107 % of control; the T/C (dose: 25.0 mg/kg/injection, schedule: Q01DX005 (ip), vehicle: saline) is 108 % of control; the T/C (dose: 50.0 mg/kg/injection, schedule: Q01DX005 (ip), vehicle: saline) was 104 % of control and 106 % of control.

For `Cc1ccc(S(=O)(=O)NC(=O)N(C)NC(=O)C(=O)NCc2ccco2)cc1`, the T/C under setting [21] was 103 % of control; the T/C (dose: 100.0 mg/kg/injection, schedule: Q01DX009 (ip), vehicle: saline with Tween-80) is 103 % of control; the T/C (dose: 200.0 mg/kg/injection, schedule: Q01DX009 (ip), vehicle: saline with Tween-80) was 99 % of control.

Consider `CCN(CC)CCNc1ccc(COC(=O)NC)c2oc3ccccc3c(=O)c12`, for which the T/C was 113 % of control (dose: 1.5 mg/kg/injection, schedule: Q01DX005 (ip), vehicle: distilled water + Tween-80); 113 % of control (dose: 3.0 mg/kg/injection, schedule: Q01DX005 (ip), vehicle: distilled water + Tween-80); 113 % of control (dose: 6.0 mg/kg/injection, schedule: Q01DX005 (ip), vehicle: distilled water + Tween-80); 93 % of control (dose: 12.5 mg/kg/injection, schedule: Q01DX005 (ip), vehicle: distilled water + Tween-80).

With `[N-]=[N+]=CC(=O)NC(Cc1ccccc1)C(=O)NN` (centres undefined), the T/C under setting [20] was 107 % of control, the T/C under setting [14] was 98 % of control and the T/C under setting [15] is 110 % of control.

On to `O=C1/C(=N\O)Cc2cc(Cl)ccc21`, for which the T/C is 101 % of control (dose: 12.0 mg/kg/injection, schedule: Q01DX005 (ip), vehicle: Klucel (hydroxypropylcellulose) (HPC)); 111 % of control under setting [20]; 101 % of control and 97 % of control under setting [14].

With `Cc1nc2cc(N)c(Cl)cc2[nH]1`, the T/C is, setting by setting: under setting [17], 104 % of control; under setting [18], 107 % of control.

`CC(C)COP(=O)(OCC(C)C)OCC(C)C`: the T/C (dose: 25.0 mg/kg/injection, schedule: Q01DX009 (ip), vehicle: saline with Tween-80) is 100 % of control; the T/C under setting [21] is 109 % of control; the T/C under setting [11] is 100 % of control; the T/C under setting [12] is 90 % of control; the T/C under setting [13] is 95 % of control.

Values taken from PubChem BioAssay AID330 (DTP/NCI, 2004).
